Where two headings read alike, the source gives them in different places.
Columns and labels:
[1] = system: U118MG cells (FIG-ROS1 gene fusion); assay: Growth inhibition IC50 in ROS1 mutant glioblastoma cell line U118MG (72 hours); type: cell-based; conditions: Homo sapiens, U-118-MG
[2] = system: MOLM13 cells (FLT3-ITD); assay: Growth inhibition IC50 in FLT3-ITD AML cell line MOLM13; type: cell-based; conditions: Homo sapiens
[3] = system: SW48 cell line (EGFR G719S); assay: Growth inhibition IC50 in EGFR G719S colorectal cancer cell line SW48; type: cell-based; conditions: Homo sapiens, CTG, n = 2, read-out: Half Inhibitory Concentration (IC50) Mean
[4] = system: PC9Brc1 (EGFR, exon 19 del+T790M) cells; assay: Growth inhibition IC50 in EGFR mutant lung cancer PC9Brc1 cells; type: cell-based; conditions: CTB, n ≥ 3, read-out: Half Inhibitory Concentration (IC50) Mean
[5] = biological target: T1, Ba/F3 (EML4-ALK/C1156Y) (Homo sapiens, UniProt Q9UM73, C1156Y, cells depend on it); assay: Growth inhibition IC50 in Ba/F3 cells expressing EML4-ALK C1156Y; type: cell-based
T1 construct: Q9HC35 (Echinoderm microtubule-associated protein-like 4)

[6] = biological target: T2, ALK protein in SR (NPM-ALK) cells (Homo sapiens, UniProt Q9UM73); assay: Western blot of ALK protein level (degradation, DC50), ALK phosphorylation and downstream signaling in SR cells; type: cell-based; conditions: for DC50: ALK protein degradation in SR cells
T2 construct: NPM (nucleophosmin, NPM1, P06748) fusion partner; host or cells: SR (ALCL) cells; the other entry of the earlier key: NPM1 (P06748, Nucleophosmin)

[7] = system: NCI-H2228 (EML4-ALK, V3) cells; assay: Growth inhibition IC50 in lung adenocarcinoma H2228 cells (WST); type: cell-based; conditions: Homo sapiens, WST (Table 3)
Source text: Experiments were repeated at least three times.
Besides above, we also tested the dosage-dependent effects on the growth inhibition in H2228 cells. […] (Table 3).

[8] = system: SR (NPM-ALK) cells; assay: Growth inhibition IC50 in ALCL SR cells (CCK8/WST, 72 hours); type: cell-based; conditions: SR cells, WST, Brigatinib-based PROTAD molecules (Table 3)
[9] = biological target: T3, Ba/F3 (EML4-ALK/L1196M) (Homo sapiens, UniProt Q9UM73, L1196M, cells depend on it); assay: Growth inhibition IC50 in Ba/F3 cells expressing EML4-ALK L1196M; type: cell-based
T3 construct: Q9HC35 (Echinoderm microtubule-associated protein-like 4)

[10] = system: PC9 (EGFR, exon 19 del) cells; assay: Growth inhibition IC50 in EGFR mutant lung adenocarcinoma PC9 cells; type: cell-based; conditions: Homo sapiens
[11] = system: ALK positive non-small cell lung cancer; conditions: patients; cited from earlier work
[12] = biological target: T4, Ba/F3 (EML4-ALK/WT) (Homo sapiens, UniProt Q9UM73); assay: Growth inhibition IC50 in Ba/F3 cells expressing EML4-ALK wild type; type: cell-based
T4 construct: Q9HC35 (Echinoderm microtubule-associated protein-like 4)

[13] = biological target: T5, ALK protein in H3122 (EML4-ALK) cells (Homo sapiens, UniProt Q9UM73); assay: Western blot of ALK protein level (degradation, DC50), ALK phosphorylation and downstream signaling in H3122 cells; type: cell-based; conditions: ALK protein degradation in H3122 cells
T5 construct: EML4 (Echinoderm microtubule-associated protein-like 4, Q9HC35) fusion partner, variant 1; host or cells: NCI-H3122 lung adenocarcinoma cells; the other entry of the earlier key: EML4 (Q9HC35, Echinoderm microtubule-associated protein-like 4)

[14] = Pharmacokinetics (PK) study in SD rat (IV, IP, PO; LC-MS/MS); type: in vivo; conditions: Sprague-Dawley, serum; for clearance: read-out: clearance rate, mean value
Protocol: SD rat were used to study the PK of ALK PROTAD compounds. ALK PROTAD compounds SIAIS164008, SIAIS164018, SIAIS164023 and SIAIS151118 were administrated into SD rat via three different routes: IV (Intravenous Injection), IP (Intraperitoneal Injection) and PO ([…]). Blood samples at different sampling time points up to 24 hours post dosing were collected from each animal and analyzed with LC-MS/MS to calculate the PK for each chemical.

[15] = biological target: T6, ALK protein in SR cells (Homo sapiens, UniProt Q9UM73); assay: Block of ALK degradation by proteosome inhibitors MG132 and MLN4924 in SR cells; type: cell-based
T6 construct: NPM (nucleophosmin, NPM1, P06748) fusion partner; host or cells: SR (ALCL) cells; the other entry of the earlier key: NPM1 (P06748, Nucleophosmin)
Source text: To further validate the degradation effect act through proteosome mediated pathway, we also treated cells with two different proteosome inhibitors MG132 and MLN4924 to block protein degradation (FIG. 16).

[16] = 72 h, read-out: Half Inhibitory Concentration (IC50) Mean
[17] = MOLM-13, read-out: Half Inhibitory Concentration (IC50) Mean
[18] = U118MG cells, 72 hours, n = 2, reagent CTG, read-out: Half Inhibitory Concentration (IC50) Mean
[19] = MOLM-13, MOLM13 cells, n = 2, reagent CTG, read-out: Half Inhibitory Concentration (IC50) Mean
[20] = IP, 2 mg/kg, read-out: serum half-life (converted)
[21] = IP, 2 mg/kg, read-out: time to maximal serum peak level (Tmax)
[22] = IV, single dose 2 mg/kg, read-out: serum clearance half-life (converted)
[23] = PO, 10 mg/kg, read-out: serum half-life (converted)
[24] = PC-9, PC9 cells, CTB, n ≥ 3, read-out: Half Inhibitory Concentration (IC50) Mean

Row | SMILES | IC50 [3] [nM] | IC50 [4] [nM] | GI50 [5] [nM] | IC50 [7] [nM] | GI50 [9] [nM] | DC50 [6] [nM] | IC50 ([8]; 72 h) [nM] | DC50 [13] [nM] | IC50 [10, 24] [nM] | other results
1 | CCc1cc2c(cc1N1CCC(N3CCOCC3)CC1)C(C)(C)c1[nH]c3cc(C#N)ccc3c1C2=O [Alectinib, reference compound] | 800 | – | – | – | – | – | – | – | – | IC50 [1, 16]: 1480 nM; IC50 [2, 17]: 255 nM
2 | COc1cc(N2CCC(N3CCN(C)CC3)CC2)ccc1Nc1ncc(Cl)c(Nc2ccccc2P(C)(C)=O)n1 [Brigatinib, reference compound] | 2720 | 246 | 36.8 | 45.2 | 35.9 | – | – | – | – | IC50 ([1]; 72 h): ~6800 nM; IC50 [1, 16]: 6800 nM; ALK protein levels, time- and dose-dependence ([6]; SR cells, 30 nM to 300 uM, 4-24 hours): did not affect ALK protein levels; ALK protein degradation ([6]; SR cells, western blot, 16 hours, up to 500 nM): did not degrade ALK proteins; IC50 ([2]; MOLM-13): ~152 nM; IC50 [2, 17]: 152 nM; IC50 ([8]; 72 hours): 2.8 nM; IC50 ([10]; PC-9, read-out: Half Inhibitory Concentration (IC50) Mean): 102 nM; disease control rate [11]: about 86%; response rate [11]: 55%
3 | COc1cc(N2CCC(NC(=O)CCCNc3cccc4c3C(=O)N(C3CCC(=O)NC3=O)C4=O)CC2)ccc1Nc1ncc(Cl)c(Nc2ccccc2P(C)(C)=O)n1 (stereo not shown) [SIAIS151118, N-(1-(4-((5-chloro-4-((2-(dimethylphosphoryl)phenyl)amino)pyrimidin-2-yl)amino)-3-methoxyphenyl)piperidin-4-yl)-4-((2-(2,6-dioxopiperidin-3-yl)-1,3-dioxoisoindolin-4-yl)amino)butanamide] | 1920 | – | 129 | 346 | 146 | 1 to 10 | 0.9 ± 0.2 | 1 to 50 | – | GI50 [12]: 92 nM; IC50 [1, 18]: 4260 nM; IC50 [2, 19]: 101 nM; IC50 ([2]; MOLM-13, MOLM13 cells, read-out: IC50): 101 nM; bioavailability ([14]; IP, 2 mg/kg): 225%; half-life [14, 20]: 3.27 h; Tmax [14, 21]: ~1.67 h; clearance ([14]; IV, single dose 2 mg/kg): ~6.35 mL/min/kg; half-life [14, 22]: ~4.73 h; bioavailability ([14]; PO, 10 mg/kg): 36%; Tmax ([14]; PO, 10 mg/kg, read-out: Tmax): 3.33 h; half-life [14, 23]: 4.66 h
4 | COc1cc(N2CCC(N3CCN(C(=O)CCCCCNc4cccc5c4C(=O)N(C4CCC(=O)NC4=O)C5=O)CC3)CC2)ccc1Nc1ncc(Cl)c(Nc2ccccc2P(C)(C)=O)n1 (stereo not shown) [SIAIS164022, 4-((6-(4-(1-(4-((5-chloro-4-((2-(dimethylphosphoryl)phenyl)amino)pyrimidin-2-yl)amino)-3-methoxyphenyl)piperidin-4-yl)piperazin-1-yl)-6-oxohexyl)amino)-2-(2,6-dioxopiperidin-3-yl)isoindoline-1,3-dione] | – | 696 | – | – | – | 1 to 10 | 3.3 ± 2.2 | 1 to 10 | 233 | –
5 | COc1cc(N2CCC(N3CCN(C(=O)CCCCCCNc4cccc5c4C(=O)N(C4CCC(=O)NC4=O)C5=O)CC3)CC2)ccc1Nc1ncc(Cl)c(Nc2ccccc2P(C)(C)=O)n1 (stereo not shown) [SIAIS164023, 4-((7-(4-(1-(4-((5-chloro-4-((2-(dimethylphosphoryl)phenyl)amino)pyrimidin-2-yl)amino)-3-methoxyphenyl)piperidin-4-yl)piperazin-1-yl)-7-oxoheptyl)amino)-2-(2,6-dioxopiperidin-3-yl)isoindoline-1,3-dione] | – | 870 | 47.5 | 15.5 | 75.8 | 0.5 to 10 | 4.8 ± 2.7 | 1 to 10 | 379 | GI50 [12]: 33.6 nM; bioavailability ([14]; IP, 2 mg/kg): 122%; half-life [14, 20]: 1.62 h; Tmax [14, 21]: ~2 h; clearance ([14]; IV, single dose 2 mg/kg): ~88.2 mL/min/kg; half-life [14, 22]: ~7.71 h; bioavailability ([14]; PO, 10 mg/kg): 34.4%; Tmax ([14]; PO, 10 mg/kg, read-out: Tmax): 3.33 h; half-life [14, 23]: 2.13 h
6 | COc1cc(N2CCC(NC(=O)CCCCCCC(=O)N[C@H](C(=O)N3C[C@H](O)C[C@H]3C(=O)NCc3ccc(-c4scnc4C)cc3)C(C)(C)C)CC2)ccc1Nc1ncc(Cl)c(Nc2ccccc2P(C)(C)=O)n1 [SIAIS164147, N1-(1-(4-((5-chloro-4-((2-(dimethylphosphoryl)phenyl)amino)pyrimidin-2-yl)amino)-3-methoxyphenyl)piperidin-4-yl)-N8-((S)-1-((2S,4R)-4-hydroxy-2-((4-(4-methylthiazol-5-yl)benzyl)carbamoyl)pyrrolidin-1-yl)-3,3-dimethyl-1-oxobutan-2-yl)octanediamide] | – | 1280 | – | – | – | 1 to 10 | 2 ± 1.2 | 0.02 to 1 | 321 | –
7 | COc1cc(N2CCC(NC(=O)CCCCCCCC(=O)N[C@H](C(=O)N3C[C@H](O)C[C@H]3C(=O)NCc3ccc(-c4scnc4C)cc3)C(C)(C)C)CC2)ccc1Nc1ncc(Cl)c(Nc2ccccc2P(C)(C)=O)n1 [SIAIS164148] | – | 1340 | – | – | – | 1 to 10 | 1.5 ± 0.8 | 1 to 50 | 153 | –
8 | COc1cc(N2CCC(NC(=O)CCCCCCCCC(=O)N[C@H](C(=O)N3C[C@H](O)C[C@H]3C(=O)NCc3ccc(-c4scnc4C)cc3)C(C)(C)C)CC2)ccc1Nc1ncc(Cl)c(Nc2ccccc2P(C)(C)=O)n1 [SIAIS164149, N1-(1-(4-((5-chloro-4-((2-(dimethylphosphoryl)phenyl)amino)pyrimidin-2-yl)amino)-3-methoxyphenyl)piperidin-4-yl)-N10-((S)-1-((2S,4R)-4-hydroxy-2-((4-(4-methylthiazol-5-yl)benzyl)carbamoyl)pyrrolidin-1-yl)-3,3-dimethyl-1-oxobutan-2-yl)decanediamide] | – | 988 | – | – | – | 1 to 10 | 2.3 ± 2 | – | 187 | DC50 (nM)) in H3122 [13]: 0.02 to 20 nM
9 | COc1cc(N2CCC(N3CCN(C(=O)CNc4cccc5c4CN(C4CCC(=O)NC4=O)C5=O)CC3)CC2)ccc1Nc1ncc(Cl)c(Nc2ccccc2P(C)(C)=O)n1 (stereo not shown) [SIAIS219073, 3-(4-((2-(4-(1-(4-((5-chloro-4-((2-(dimethylphosphoryl)phenyl)amino)pyrimidin-2-yl)amino)-3-methoxyphenyl)piperidin-4-yl)piperazin-1-yl)-2-oxoethyl)amino)-1-oxoisoindolin-2-yl)piperidine-2,6-dione] | > 20000 | – | – | – | – | – | 1.8 ± 1 | – | – | IC50 [1, 18]: > 20000 nM; IC50 [2, 19]: 373 nM
10 | COc1cc(N2CCC(N3CCN(C(=O)CNc4cccc5c4C(=O)N(C4CCC(=O)N(C)C4=O)C5=O)CC3)CC2)ccc1Nc1ncc(Cl)c(Nc2ccccc2P(C)(C)=O)n1 (stereo not shown) [SIAIS1210003, 4-((2-(4-(1-(4-((5-chloro-4-((2-(dimethylphosphoryl)phenyl)amino)pyrimidin-2-yl)amino)-3-methoxyphenyl)piperidin-4-yl)piperazin-1-yl)-2-oxoethyl)amino)-2-(1-methyl-2,6-dioxopiperidin-3-yl)isoindoline-1,3-dione] | – | – | – | – | – | – | – | – | – | reduction of ALK protein level and its block by MG132 and MLN4924 [15]: no such effect

Reference: patent US11771709B2, “ALK protein degradation agent and anti-tumor application thereof” (ShanghaiTech University, priority 2017, dated 2023)
